This is an account of results in patent publication US10106508B2, “Quinazoline heterocyclic compound as EGFR kinase inhibitor and preparation and application thereof” (BEIJING SCITECH-MQ PHARMACEUTICALS LIMITED, priority 2015, dated 2018).

For experiment [1], the target named is EGFR (WT) (Homo sapiens (Human), UniProt P00533). As to the kind of experiment: Kinase-Glo luminescent kinase assay, EGFR tyrosine kinase inhibitory activity (WT). It is filed as biochemical. Particulars: EGFR wild type. The protocol:
(§1) Determination of the Compound Inhibitory Activity Against EGFR Kinase
(§2) The inhibitory activity of compounds in formula (I) and (II) were determined using Kinase-Glo luminescent kinase assay. The receptor tyrosine kinase EGFR was tested and Gefitinib, a known EGFR inhibitor, was chosen as the positive control compound. The method is detailed below:
(§3) The sample compounds were dissolved in DMSO and diluted it to 500 μM concentration with DMSO and transferred to a dose plate. The compounds were serially diluted with DMSO in 5 fold concentration. Then each concentration was diluted 10-fold with the reaction buffer to get a 10× final concentration. Transfer the compounds with concentrations ranging from 0.003 μM to 50 μM to EGFR assay plate to determine their kinase activity with a dose of 1 μL/well.
(§4) The positive control compound Gifitinib was dissolved in DMSO as 10 mM stock solution and diluted it to 100 μM concentration with DMSO. The control compound was serially diluted with DMSO in 5 fold concentration. Then each concentration was diluted 10-fold with the reaction buffer to get a 10× final concentration.
(§5) For the HPE (hundred percent effect: No kinase and no compound, but containing ATP, substrate and 1% DMSO) and ZPE (zero percent effect: No compound but containing kinase, ATP, substrate and 1% DMSO) wells, dilute 2 μL DMSO 10-fold with reaction buffer to obtain 10% DMSO solution. Then transfer it to the assay plat, 1 μL/well. The positive control wells contain kinase, ATP, substrate and positive control compound in different concentrations. The sample compound wells contain kinase, ATP, substrate and the compounds to be tested in different concentrations.
(§6) Preparation of the reagents in need: 4×ATP: dilute ATP 4 times with assay buffer to obtain a working solution; 4× substrate: dilute Poly ([…]: tyrosine) 4 times with assay buffer to obtain a working solution; 2.5×EGFR kinase: dilute EGFR kinase 2.5 times with assay buffer to obtain a working solution.
(§7) Kinase reaction: Add 10× compounds to the assay plate in a 384-well plate layout, 1 μL/well. For the HPE and ZPE wells, equal volume (1 μL/well) of 10% DMSO was added to the 384-well assay plate; Add 2.5×EGFR kinase into the assay plate in 384-well plate layout, 4 μL/well. For HPE and ZPE wells, an equal volume (4 μL/well) of assay buffer was added to the 384-well assay plate; Centrifuge the assay plate with 1000 rpm for 1 min to mix them; Pre-incubate the assay plate for 30 min at 30° C.; Mix equal volume of 4×ATP and 4× substrate to obtain 2×ATP-substrate mixture which serves as a reaction mixture for the determination of EGFR activity; Add 2×ATP-substrate mixture to the assay plate, 5 μL/well; Centrifuge the assay plate at 1000 rpm for 1 min to mix them; Incubate the assay plate for one hour at 30° C.; Add Kinase glo plus was to each well (10 μL/well), and then incubated the assay plate for 20 min at 27° C.; Read luminescence signal with Envision plate reader.

The target in experiment [2] is EGFR (T790M) (Homo sapiens (Human), UniProt P00533, T790M). As to the kind of experiment: Kinase-Glo luminescent kinase assay, EGFR tyrosine kinase inhibitory activity (T790M). It is filed as biochemical. The protocol: as §1, §2, §3, §4, §5, §6, §7
EGFR (T790M), sequence (P00533 25-1210 T790M): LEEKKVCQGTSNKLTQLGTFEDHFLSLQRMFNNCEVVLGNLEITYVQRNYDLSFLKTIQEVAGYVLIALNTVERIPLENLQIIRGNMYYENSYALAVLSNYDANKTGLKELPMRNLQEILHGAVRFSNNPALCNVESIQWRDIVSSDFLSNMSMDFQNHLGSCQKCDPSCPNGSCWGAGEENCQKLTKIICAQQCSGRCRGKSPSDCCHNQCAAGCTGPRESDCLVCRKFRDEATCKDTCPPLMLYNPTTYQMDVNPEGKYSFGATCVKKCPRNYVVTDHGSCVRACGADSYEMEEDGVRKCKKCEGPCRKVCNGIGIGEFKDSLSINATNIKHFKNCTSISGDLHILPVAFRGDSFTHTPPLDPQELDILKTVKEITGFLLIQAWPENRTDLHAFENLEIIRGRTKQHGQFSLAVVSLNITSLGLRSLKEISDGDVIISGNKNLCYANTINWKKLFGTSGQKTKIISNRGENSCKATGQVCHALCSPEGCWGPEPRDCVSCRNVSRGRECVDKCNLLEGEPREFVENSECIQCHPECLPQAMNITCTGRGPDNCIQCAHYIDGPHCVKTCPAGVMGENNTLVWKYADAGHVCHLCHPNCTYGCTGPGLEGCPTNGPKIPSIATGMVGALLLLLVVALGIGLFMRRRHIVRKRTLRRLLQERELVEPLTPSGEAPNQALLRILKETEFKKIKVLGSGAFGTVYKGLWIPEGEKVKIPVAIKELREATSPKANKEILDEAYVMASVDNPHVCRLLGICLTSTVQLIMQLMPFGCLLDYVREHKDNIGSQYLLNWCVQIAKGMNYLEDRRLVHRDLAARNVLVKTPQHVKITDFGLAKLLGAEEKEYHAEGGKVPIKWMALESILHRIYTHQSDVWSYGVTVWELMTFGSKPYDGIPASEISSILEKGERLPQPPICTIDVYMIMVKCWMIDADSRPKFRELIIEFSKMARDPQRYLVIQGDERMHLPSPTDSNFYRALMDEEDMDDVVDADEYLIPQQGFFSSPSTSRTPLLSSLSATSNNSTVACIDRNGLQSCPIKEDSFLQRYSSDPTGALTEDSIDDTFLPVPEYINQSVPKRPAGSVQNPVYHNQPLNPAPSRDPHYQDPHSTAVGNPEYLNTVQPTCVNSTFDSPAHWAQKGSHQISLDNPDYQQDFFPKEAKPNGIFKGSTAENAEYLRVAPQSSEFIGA

EGFR (WT), sequence (P00533 25-1210): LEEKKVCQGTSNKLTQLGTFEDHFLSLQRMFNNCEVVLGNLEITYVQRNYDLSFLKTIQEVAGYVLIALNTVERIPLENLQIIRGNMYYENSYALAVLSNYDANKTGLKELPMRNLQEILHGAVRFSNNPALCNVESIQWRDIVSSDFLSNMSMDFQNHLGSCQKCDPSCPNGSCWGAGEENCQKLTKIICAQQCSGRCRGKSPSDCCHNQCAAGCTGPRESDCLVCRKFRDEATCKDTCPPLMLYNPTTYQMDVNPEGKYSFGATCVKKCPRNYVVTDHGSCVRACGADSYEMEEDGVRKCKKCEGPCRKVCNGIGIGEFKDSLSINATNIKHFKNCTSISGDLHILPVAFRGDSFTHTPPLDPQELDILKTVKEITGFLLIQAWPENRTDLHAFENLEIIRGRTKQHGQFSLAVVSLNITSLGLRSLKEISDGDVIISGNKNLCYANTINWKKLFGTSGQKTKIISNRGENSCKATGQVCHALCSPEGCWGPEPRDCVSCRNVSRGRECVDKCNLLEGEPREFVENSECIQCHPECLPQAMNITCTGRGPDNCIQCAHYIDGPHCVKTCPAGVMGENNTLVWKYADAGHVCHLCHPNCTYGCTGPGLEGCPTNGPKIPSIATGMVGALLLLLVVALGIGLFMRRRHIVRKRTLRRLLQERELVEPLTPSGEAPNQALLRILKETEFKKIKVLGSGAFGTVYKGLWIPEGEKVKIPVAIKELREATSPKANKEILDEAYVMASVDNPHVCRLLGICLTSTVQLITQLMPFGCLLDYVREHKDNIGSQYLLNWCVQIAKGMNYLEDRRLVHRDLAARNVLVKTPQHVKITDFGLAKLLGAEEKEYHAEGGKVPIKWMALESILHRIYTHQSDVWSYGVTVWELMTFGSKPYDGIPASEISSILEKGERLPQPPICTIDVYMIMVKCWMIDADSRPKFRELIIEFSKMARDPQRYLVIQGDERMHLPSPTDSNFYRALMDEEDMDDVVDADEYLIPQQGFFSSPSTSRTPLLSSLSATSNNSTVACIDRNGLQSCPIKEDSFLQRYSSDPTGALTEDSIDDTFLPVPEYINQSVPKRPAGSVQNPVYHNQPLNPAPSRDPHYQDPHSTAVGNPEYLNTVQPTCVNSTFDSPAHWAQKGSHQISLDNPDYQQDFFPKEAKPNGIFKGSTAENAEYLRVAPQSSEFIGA

On to `Fc1ccc(Nc2ncnc3cc(OCC4CCCO4)c4c(c23)OCCO4)cc1Cl` (centres unmarked) [Compound I-40, N-(3-Chloro-4-fluorophenyl)-5-((tetrahydrofuran-2-yl)methoxy)-2,3-dihydro-[1,4]dioxino[2,3-f]quinazolin-10-amine], for which the IC50 is less than 0.05 µM in experiment [1] and less than 1 µM in experiment [2].
Consider `CC(C)Oc1cc2ncnc(Nc3ccc(F)c([N+](=O)[O-])c3)c2c2c1OCCO2` [Compound I-2, N-(4-Fluoro-3-nitrophenyl)-5-isopropoxy-2,3-dihydro-[1,4]dioxino[2,3-f]quinazolin-10-amine], for which the IC50 in experiment [1] was less than 0.1 µM; in experiment [2] it was less than 1 µM.
Turning to `Cc1ccc(Nc2ncnc3cc4c(cc23)N(CCCN2CCOCC2)C(=O)CO4)cc1Cl` [II-3, 4-((3-Chloro-4-methylphenyl)amino)-6-(3-morpholinopropyl)[1,4]oxazino[3,2-g]quinazolin-7(8H)-one], the IC50 in experiment [1] is less than 0.2 µM; in experiment [2], less than 1 µM.
For `CCOC(C)Oc1cc2ncnc(Nc3ccc(C)c([N+](=O)[O-])c3)c2c2c1OCCO2` (centres unmarked) [Compound I-18, 5-(1-Ethoxyethoxy)-N-(4-methyl-3-nitrophenyl)-2,3-dihydro-[1,4]dioxino[2,3-f]quinazolin-10-amine], the IC50 was less than 0.3 µM in experiment [1] and less than 1 µM in experiment [2].
The like results for `Cc1ccc(Nc2ncnc3cc(OC(C)C)c4c(c23)OCCO4)cc1C#N` [Compound I-6, 5-((5-Isopropoxy-2,3-dihydro-[1,4]dioxino[2,3-f]quinazolin-10-yl)amino)-2-methylbenzonitrile] were, in that order, less than 0.4 µM and less than 1 µM.
Turning to `C#Cc1cccc(Nc2ncnc3cc(OC(C)COC)c4c(c23)OCCO4)c1` (centres unmarked) [Compound I-26, N-(3-Ethynylphenyl)-5-(1-methoxypropan-2-yloxy)-2,3-dihydro-[1,4]dioxino[2,3-f]quinazolin-10-amine], the values for the IC50 in experiment [1] and in experiment [2] were less than 0.1 µM and less than 0.3 µM, respectively.
In the case of `Cc1ccc(Nc2ncnc3cc(OC(C)C)c4c(c23)OCCO4)cc1[N+](=O)[O-]` [Compound I-3, 5-Isopropoxy-N-(4-methyl-3-nitrophenyl)-2,3-dihydro-[1,4]dioxino[2,3-f]quinazolin-10-amine], the results for the IC50 in experiment [1] and in experiment [2] were less than 0.2 µM and less than 1 µM, respectively.
Take `CCOC(C)Oc1cc2ncnc(Nc3ccc(F)c(C#N)c3)c2c2c1OCCO2` (centres unmarked) [Compound I-19, 5-((5-(1-Ethoxyethoxy)-2,3-dihydro-[1,4]dioxino[2,3-f]quinazolin-10-yl)amino)-2-fluoro-benzonitrile]: the IC50 in experiment [1] is less than 0.3 µM; in experiment [2], less than 1 µM.
As for `CC(C)Oc1cc2ncnc(Nc3ccc(Cl)c([N+](=O)[O-])c3)c2c2c1OCCO2` [Compound I-4, N-(4-Chloro-3-nitrophenyl)-5-isopropoxy-2,3-dihydro-[1,4]dioxino[2,3-f]quinazolin-10-amine], the IC50 is less than 0.1 µM in experiment [1] and less than 1 µM in experiment [2].
For the molecule `C#Cc1cccc(Nc2ncnc3cc(OC)c4c(c23)OCCO4)c1` [Compound I-28, N-(3-Ethynylphenyl)-5-methoxy-2,3-dihydro-[1,4]dioxino[2,3-f]quinazolin-10-amine], the IC50 is less than 0.05 µM in experiment [1] and less than 1 µM in experiment [2].
As for `C#Cc1cccc(Nc2ncnc3cc(OCCOC)c4c(c23)OCCO4)c1` [Compound I-31, N-(3-Ethynylphenyl)-5-(2-methoxyethoxy)-2,3-dihydro-[1,4]dioxino[2,3-f]quinazolin-10-amine], the half-maximal inhibitory concentration (IC50) in experiment [1] and in experiment [2] was less than 0.05 µM in each case.
As to `COCCOc1cc2ncnc(Nc3ccc(Cl)c([N+](=O)[O-])c3)c2c2c1OCCO2` [Compound I-12, N-(4-Chloro-3-nitrophenyl)-5-(2-methoxyethoxy)-2,3-dihydro-[1,4]dioxino[2,3-f]quinazolin-10-amine], the results for the IC50 in experiment [1] and in experiment [2] were less than 0.05 µM and less than 1 µM, respectively.
For `COCCOc1cc2ncnc(Nc3ccc(C)c([N+](=O)[O-])c3)c2c2c1OCCO2` [Compound I-11, 5-(2-Methoxyethoxy)-N-(4-methyl-3-nitrophenyl)-2,3-dihydro-[1,4]dioxino[2,3-f]quinazolin-10-amine], the IC50 was less than 0.1 µM in experiment [1] and less than 1 µM in experiment [2].
Regarding `COc1ccc(Nc2ncnc3cc(OC(C)C)c4c(c23)OCCO4)cc1[N+](=O)[O-]` [Compound I-1, 5-Isopropoxy-N-(4-methoxy-3-nitrophenyl)-2,3-dihydro-[1,4]dioxino[2,3-f]quinazolin-10-amine], the IC50 in experiment [1] and in experiment [2] was less than 1 µM in each case.
With `COCCOc1cc2ncnc(Nc3ccc(C)c(C#N)c3)c2c2c1OCCO2` [Compound I-14, 5-((5-(2-Methoxyethoxy)-2,3-dihydro-[1,4]dioxino[2,3-f]quinazolin-10-yl)amino)-2-methylbenzonitrile], the IC50 in experiment [1] and in experiment [2] was less than 1 µM throughout.
Consider `COCCOc1cc2ncnc(Nc3ccc(OC)c([N+](=O)[O-])c3)c2c2c1OCCO2` [Compound I-9, N-(4-Methoxy-3-nitrophenyl)-5-(2-methoxyethoxy)-2,3-dihydro-[1,4]dioxino[2,3-f]quinazolin-10-amine], for which the IC50 in experiment [1] and in experiment [2] was less than 1 µM each time.
Take `COc1ccc(Nc2ncnc3cc4c(cc23)N(CCCN2CCOCC2)C(=O)CO4)cc1OC` [II-5, 4-((3,4-Dimethoxyphenyl)amino)-6-(3-morpholinopropyl)-6H-[1,4]oxazino[3,2-g]quinazolin-7(8H)-one]: the IC50 in experiment [1] is less than 0.2 µM; in experiment [2], less than 1 µM.
The like results for `CCOc1cc2ncnc(Nc3cccc([N+](=O)[O-])c3)c2c2c1OCCO2` [Compound I-38, 5-Ethoxy-N-(3-nitrophenyl)-2,3-dihydro-[1,4]dioxino[2,3-f]quinazolin-10-amine] were, in that order, less than 0.05 µM and less than 0.05 µM.
For `COCCOc1cc2ncnc(Nc3ccc(F)c(C#N)c3)c2c2c1OCCO2` [Compound I-13, 2-Fluoro-5-((5-(2-methoxyethoxy)-2,3-dihydro-[1,4]dioxino[2,3-f]quinazolin-10-yl)amino)benzonitrile], the concentration for half-maximal inhibition (IC50) in experiment [1] is less than 0.5 µM; in experiment [2], less than 1 µM.
The like results for `CC(C)Oc1cc2ncnc(Nc3ccc(F)c(C#N)c3)c2c2c1OCCO2` [Compound I-5, 2-Fluoro-5-((5-isopropoxy-2,3-dihydro-[1,4]dioxino[2,3-f]quinazolin-10-yl)amino)benzonitrile] were, in that order, less than 0.3 µM and less than 1 µM.
Regarding `COc1cc2ncnc(Nc3ccc(F)c(Cl)c3)c2c2c1OCCO2` [Compound I-29, N-(3-Chloro-4-fluorophenyl)-5-methoxy-2,3-dihydro-[1,4]dioxino[2,3-f]quinazolin-10-amine], the IC50 is less than 0.05 µM in experiment [1] and less than 1 µM in experiment [2].
With `CCOC(C)Oc1cc2ncnc(Nc3ccc(C)c(C#N)c3)c2c2c1OCCO2` (centres unmarked) [Compound I-20, 5-((5-(1-Ethoxyethoxy)-2,3-dihydro-[1,4]dioxino[2,3-f]quinazolin-10-yl)amino)-2-methylbenzonitrile], the IC50 in experiment [1] and in experiment [2] was less than 1 µM throughout.
Take `CCOC(C)Oc1cc2ncnc(Nc3ccc(Cl)c([N+](=O)[O-])c3)c2c2c1OCCO2` (centres unmarked) [Compound I-17, N-(4-Chloro-3-nitrophenyl)-5-(1-ethoxyethoxy)-2,3-dihydro-[1,4]dioxino[2,3-f]quinazolin-10-amine]: the values for the IC50 in experiment [1] and in experiment [2] were less than 0.3 µM and less than 1 µM, respectively.
On to `CCOC(C)Oc1cc2ncnc(Nc3ccc(OC)c([N+](=O)[O-])c3)c2c2c1OCCO2` (centres unmarked) [Compound I-15, 5-(1-Ethoxyethoxy)-N-(4-methoxy-3-nitrophenyl)-2,3-dihydro-[1,4]dioxino[2,3-f]quinazolin-10-amine], for which the IC50 in experiment [1] and in experiment [2] was less than 1 µM each time.
As to `COc1cccc(Nc2ncnc3cc4c(cc23)N(CCCN2CCOCC2)C(=O)CO4)c1` [II-4, 4-((3-Methoxyphenyl)amino)-6-(3-morpholinopropyl)-6H-[1,4]oxazino[3,2-g]quinazolin-7(8H)-one], the figures for the IC50 in experiment [1] and in experiment [2] were less than 0.2 µM and less than 1 µM, respectively.
